These results are taken from patent US10131644B2, “Aryl sultam derivatives as RORc modulators” (Genentech, Inc., priority 2014, dated 2018).

For the assay, the target named is T1, RORc (Homo sapiens, UniProt P51449).
T1 sequence (P51449 269-508 limits assumed): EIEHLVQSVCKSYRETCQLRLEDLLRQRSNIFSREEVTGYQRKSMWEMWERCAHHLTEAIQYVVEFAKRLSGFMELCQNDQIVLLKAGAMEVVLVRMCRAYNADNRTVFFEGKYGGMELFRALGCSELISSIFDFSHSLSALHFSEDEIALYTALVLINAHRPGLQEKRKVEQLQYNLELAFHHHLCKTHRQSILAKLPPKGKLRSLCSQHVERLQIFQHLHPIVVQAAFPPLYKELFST
As to the kind of experiment: In vitro RORc ligand binding assay (25-[3H]hydroxycholesterol displacement). The following applies: IC50, IC50 values for RORc; unit inferred.
`C[C@H]1CCC(c2ccccc2)S(=O)(=O)N1Cc1ccc(C2(C(=O)O)CCOCC2)cc1` (stereo partly drawn) [Compound 29, 4-[4-((S)-3-Methyl-1,1-dioxo-6-phenyl-[1,2]thiazinan-2-ylmethyl)-phenyl]-tetrahydro-pyran-4-carboxylic acid] showed a 50% inhibitory concentration (IC50) of 4400 nM. In the case of `C[C@H]1CC[C@H](c2ccccc2)S(=O)(=O)N1Cc1cc(F)c(C2(OCC(=O)O)COC2)cc1F` [Compound 135, 2-[3-[2,5-difluoro-4-[[(3S,6R)-3-methyl-1,1-dioxo-6-phenyl-thiazinan-2-yl]methyl]phenyl]oxetan-3-yl]oxyacetic acid], the IC50 worked out at 27.2 nM. Consider `C[C@H]1CC[C@H](c2ccccc2)S(=O)(=O)N1Cc1ccc(C2(/C=C/C#N)CCOCC2)cc1F` [Compound 72, (E)-3-[4-[3-fluoro-4-[[(3S,6R)-3-methyl-1,1-dioxo-6-phenyl-thiazinan-2-yl]methyl]phenyl]tetrahydropyran-4-yl]prop-2-enenitrile], for which the IC50 is 8.7 nM. Under `CNC(=O)C1(c2ccc(CN3[C@@H](C)CCC(c4ccccc4)S3(=O)=O)cc2)CCOCC1` (stereo partly drawn) [Compound 40, 4-[4-((S)-3-Methyl-1,1-dioxo-6-phenyl-[1,2]thiazinan-2-ylmethyl)-phenyl]-tetrahydro-pyran-4-carboxylic acid methylamide] stands 570 nM; under `C[C@H]1CC[C@H](c2ccccc2)S(=O)(=O)N1Cc1cc(F)c(C2(OCC(=O)N(C)CCO)CCOCC2)cc1F` [Compound 157, 2-[4-[2,5-difluoro-4-[[(3S,6R)-3-methyl-1,1-dioxo-6-phenyl-thiazinan-2-yl]methyl]phenyl]tetrahydropyran-4-yl]oxy-N-(2-hydroxyethyl)-N-methyl-acetamide], 47.2 nM. To `COC(=O)C1(c2ccc(CN3[C@@H](C)CC[C@H](c4ccccc4)S3(=O)=O)c(F)c2)CCN(C(C)=O)CC1` [Compound 124, methyl 1-acetyl-4-[3-fluoro-4-[[(3S,6R)-3-methyl-1,1-dioxo-6-phenyl-thiazinan-2-yl]methyl]phenyl]piperidine-4-carboxylate] belongs 13 nM.

In turn, `CC(=O)N1CCC(OCC(O)CO)(c2cc(F)c(CN3[C@@H](C)CC[C@H](c4ccccc4)S3(=O)=O)cc2F)CC1` (stereo partly drawn) [Compound 144, 1-[4-[2,5-difluoro-4-[[(3S,6R)-3-methyl-1,1-dioxo-6-phenyl-thiazinan-2-yl]methyl]phenyl]-4-(2,3-dihydroxypropoxy)-1-piperidyl]ethanone] came in with an IC50 of 21.6 nM. Under `C[C@H]1CC[C@H](c2ccccc2)S(=O)(=O)N1Cc1ccc(C2(NCC(=O)N(C)C)CCOCC2)cc1F` [Compound 166, 2-[[4-[3-fluoro-4-[[(3S,6R)-3-methyl-1,1-dioxo-6-phenyl-thiazinan-2-yl]methyl]phenyl]tetrahydropyran-4-yl]amino]-N,N-dimethyl-acetamide] stands 27.6 nM; under `COC(=O)C1(c2ccc(CN3[C@@H](C)CC[C@H](c4ccccc4)S3(=O)=O)c(F)c2)CCOCC1` [Compound 39, 4-[3-Fluoro-4-((3S,6R)-3-methyl-1,1-dioxo-6-phenyl-[1,2]thiazinan-2-ylmethyl)-phenyl]-tetrahydro-pyran-4-carboxylic acid methyl ester], 190 nM; under `CC(=O)N1CCC(OCC(N)=O)(c2cc(F)c(CN3[C@@H](C)CC[C@H](c4ccccc4)S3(=O)=O)cc2F)CC1` [Compound 141, 2-[[1-acetyl-4-[2,5-difluoro-4-[[(3S,6R)-3-methyl-1,1-dioxo-6-phenyl-thiazinan-2-yl]methyl]phenyl]-4-piperidyl]oxy]acetamide], 26 nM.

For `CCOC(=O)/C=C/C1(c2ccc(CN3[C@@H](C)CC[C@H](c4ccccc4)S3(=O)=O)c(F)c2)CC1` [Compound 114, ethyl (E)-3-[1-[3-fluoro-4-[[(3S,6R)-3-methyl-1,1-dioxo-6-phenyl-thiazinan-2-yl]methyl]phenyl]cyclopropyl]prop-2-enoate], the concentration for half-maximal inhibition (IC50) is 53.6 nM.

The compound `CCOC(=O)CNC1(c2ccc(CN3[C@@H](C)CC[C@H](c4ccccc4)S3(=O)=O)c(F)c2)CCOCC1` [Compound 161, ethyl 2-[[4-[3-fluoro-4-[[(3S,6R)-3-methyl-1,1-dioxo-6-phenyl-thiazinan-2-yl]methyl]phenyl]tetrahydropyran-4-yl]amino]acetate] returned an IC50 of 29.5 nM.

In turn, `CNC(=O)CCC1(c2ccc(CN3[C@@H](C)CC[C@H](c4ccccc4)S3(=O)=O)c(F)c2)CCOCC1` [Compound 88, 3-[4-[3-fluoro-4-[[(3S,6R)-3-methyl-1,1-dioxo-6-phenyl-thiazinan-2-yl]methyl]phenyl]tetrahydropyran-4-yl]-N-methyl-propanamide] came in with an IC50 of 14.8 nM. The compound `C[C@H]1CC[C@H](c2ccccc2)S(=O)(=O)N1Cc1ccc(C2(C(=O)NCC(=O)N(C)C)CCOCC2)cc1F` [Compound 56, N-[2-(dimethylamino)-2-oxo-ethyl]-4-[3-fluoro-4-[[(3S,6R)-3-methyl-1,1-dioxo-6-phenyl-thiazinan-2-yl]methyl]phenyl]tetrahydropyran-4-carboxamide] registered an IC50 of 403 nM. Compound `C[C@H]1CC[C@H](c2ccccc2)S(=O)(=O)N1Cc1ccc(C2(O)CCC3(CC2)OCCO3)cc1F` [Compound 24, 8-[3-Fluoro-4-((3S,6R)-3-methyl-1,1-dioxo-6-phenyl-[1,2]thiazinan-2-ylmethyl)-phenyl]-1,4-dioxa-spiro[4.5]decan-8-ol] gave an IC50 of 180 nM. Compound `C[C@H]1CC[C@H](c2ccccc2)S(=O)(=O)N1Cc1ccc([C@]2(C#N)CC[C@@H](n3cnnc3)CC2)cc1` [Example 10, 1-[4-((3S,6R)-3-Methyl-1,1-dioxo-6-phenyl-[1,2]thiazinan-2-ylmethyl)-phenyl]-4-[1,2,4]triazol-4-yl-cyclohexanecarbonitrile] came in with an IC50 of 150 nM.

The compound `CCOC(=O)[C@H](C)NC1(c2ccc(CN3[C@@H](C)CC[C@H](c4ccccc4)S3(=O)=O)c(F)c2)CCOCC1` [Compound 184, ethyl (2S)-2-[[4-[3-fluoro-4-[[(3S,6R)-3-methyl-1,1-dioxo-6-phenyl-thiazinan-2-yl]methyl]phenyl]tetrahydropyran-4-yl]amino]propanoate] gave an IC50 of 40.9 nM.

In the case of `CC(=O)N1CCC(O)(c2ccc(CN3[C@@H](C)CC[C@H](c4ccccc4)S3(=O)=O)c(F)c2)CC1` [Example 9, 1-{4-[3-Fluoro-4-((3S,6R)-3-methyl-1,1-dioxo-6-phenyl-[1,2]thiazinan-2-ylmethyl)-phenyl]-4-hydroxy-piperidin-1-yl}-ethanone], the IC50 amounted to 130 nM. In the case of `C[C@H]1CC[C@@H](c2ccccc2)S(=O)(=O)N1Cc1ccc(C2(O)CCS(=O)(=O)CC2)cc1F` [Compound 41, (3S,6S)-2-(2-fluoro-4-(4-hydroxy-1,1-dioxidotetrahydro-2H-thiopyran-4-yl)benzyl)-3-methyl-6-phenyl-1,2-thiazinane 1,1-dioxide], the IC50 was found to be 1200 nM. Regarding `C[C@H]1CC[C@H](c2ccccc2)S(=O)(=O)N1Cc1cc(F)c(C2(OCC(O)CO)COC2)cc1F` (stereo partly drawn) [Compound 142, 3-[3-[2,5-difluoro-4-[[(3S,6R)-3-methyl-1,1-dioxo-6-phenyl-thiazinan-2-yl]methyl]phenyl]oxetan-3-yl]oxypropane-1,2-diol], the IC50 stood at 20.6 nM. On to `COC1(OC)CC(C(N)=O)(c2ccc(CN3[C@@H](C)CC[C@H](c4ccccc4)S3(=O)=O)c(F)c2)C1` [Compound 181, 1-[3-fluoro-4-[[(3S,6R)-3-methyl-1,1-dioxo-6-phenyl-thiazinan-2-yl]methyl]phenyl]-3,3-dimethoxy-cyclobutanecarboxamide], for which the IC50 came to 23.7 nM.

On to `COC(=O)NCC1(c2ccc(CN3[C@@H](C)CC[C@H](c4ccccc4)S3(=O)=O)c(F)c2)CCOCC1` [Compound 73, methyl N-[[4-[3-fluoro-4-[[(3S,6R)-3-methyl-1,1-dioxo-6-phenyl-thiazinan-2-yl]methyl]phenyl]tetrahydropyran-4-yl]methyl]carbamate], for which the IC50 was 53.2 nM. Under `COCCCOCC1(c2ccc(CN3[C@@H](C)CC[C@H](c4ccccc4)S3(=O)=O)c(F)c2)CCOCC1` [Compound 91, (3S,6R)-2-[[2-fluoro-4-[4-(3-methoxypropoxymethyl)tetrahydro-pyran-4-yl]phenyl]methyl]-3-methyl-6-phenyl-thiazinane 1,1-dioxide] stands 103 nM; under `C[C@H]1CC[C@H](c2ccccc2)S(=O)(=O)N1Cc1ccc(C2(C(=O)NCCO)CCOCC2)cc1F` [Compound 48, 4-(3-fluoro-4-(((3S,6R)-3-methyl-1,1-dioxido-6-phenyl-1,2-thiazinan-2-yl)methyl)phenyl)-N-(2-hydroxyethyl)tetrahydro-2H-pyran-4-carboxamide], 337 nM.

`C[C@H]1CC[C@H](c2ccccc2)S(=O)(=O)N1Cc1ccc(OCC2(F)CCOCC2)cc1F` [Example 5, (3S,6R)-2-[2-Fluoro-4-(4-fluoro-tetrahydro-pyran-4-ylmethoxy)-benzyl]-3-methyl-6-phenyl-[1,2]thiazinane 1,1-dioxide] had a half-maximal inhibitory concentration (IC50) of 160 nM. Consider `CC(=O)NC1(c2ccc(CN3[C@@H](C)CC[C@H](c4ccccc4)S3(=O)=O)c(F)c2)CCOCC1` [Compound 94, N-[4-[3-fluoro-4-[[(3S,6R)-3-methyl-1,1-dioxo-6-phenyl-thiazinan-2-yl]methyl]phenyl]tetrahydropyran-4-yl]acetamide], for which the IC50 turned out to be 93.2 nM. The compound `COC(=O)[C@]1(c2ccc(CN3[C@@H](C)CC[C@H](c4ccccc4)S3(=O)=O)cc2)CC[C@H](n2cnnc2)CC1` [Example 17, 1-[4-((3S,6R)-3-Methyl-1,1-dioxo-6-phenyl-[1,2]thiazinan-2-ylmethyl)-phenyl]-4-[1,2,4]triazol-4-yl-cyclohexanecarboxylic acid methyl ester] displayed an IC50 of 360 nM.
